Experimental data reported in PubChem BioAssay AID180 (DTP/NCI, 2004).
Where “and” joins values, the source holds several entries; their conditions need not be identical. Equal values may be shown once.

Tested on: BDF1 mice, Adenocarcinoma 755 s.c., tumor weight T/C
Assay: NCI In Vivo Anticancer Drug Screen. Data for tumor model Adenocarcinoma 755 (subcutaneous) in B6D2F1 (BDF1) mice
Details: endpoint: mean tumor weight, higher = larger tumour
In short: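 Tumor-bearing mice receive test compound while controls get vehicle alone. Antitumor effect is scored from survival or tumor dimensions as a T/C quotient.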

With Nc1c(Br)cc2c(c1Br)Cc1cc(Br)ccc1-2 as the compound, how does the T/C (dose: 3.75 mg/kg/injection, schedule: Q#A X022 (ip), vehicle: saline) read?
Its T/C is 77 % of control.

What about the T/C (dose: 7.5 mg/kg/injection, schedule: Q#A X022 (ip), vehicle: saline) of the same compound?
Its T/C is 50 % of control.

What about the T/C (dose: 15.0 mg/kg/injection, schedule: Q01DX011 (im), vehicle: saline) of the same compound?
The T/C was 46 % of control.

What about the T/C (dose: 15.0 mg/kg/injection, schedule: Q01DX011 (sc), vehicle: saline) of the same compound?
Its T/C is 58 % of control.

What about the T/C (dose: 15.0 mg/kg/injection, schedule: Q#A X022 (ip), vehicle: saline) of the same compound?
The T/C was 40 % of control.

And the T/C (dose: 15.5 mg/kg/injection, schedule: Q01DX011 (ip), vehicle: saline)?
The T/C was 74 % of control.

What about the T/C (dose: 21.8 mg/kg/injection, schedule: Q01DX011 (ip), vehicle: saline) of the same compound?
The T/C was 59 % of control and 69 % of control.

What about the T/C (dose: 30.0 mg/kg/injection, schedule: Q01DX011 (im), vehicle: saline) of the same compound?
Its T/C is 48 % of control.

And the T/C (dose: 30.0 mg/kg/injection, schedule: Q01DX011 (sc), vehicle: saline)?
The T/C was 52 % of control.

What about the T/C (dose: 30.0 mg/kg/injection, schedule: Q#A X022 (ip), vehicle: saline) of the same compound?
Its T/C is 40 % of control.

And the T/C (dose: 31.2 mg/kg/injection, schedule: Q01DX011 (ip), vehicle: saline)?
The T/C was 75 % of control.

And the T/C (dose: 43.7 mg/kg/injection, schedule: Q01DX011 (ip), vehicle: saline)?
The T/C was 18 % of control and 36 % of control.

And the T/C (dose: 45.0 mg/kg/injection, schedule: Q03DX004 (ip), vehicle: saline)?
The T/C was 67 % of control.

And the T/C (dose: 60.0 mg/kg/injection, schedule: Q01DX011 (im), vehicle: saline)?
The T/C was 40 % of control.

What about the T/C (dose: 60.0 mg/kg/injection, schedule: Q01DX011 (ip), vehicle: saline) of the same compound?
The T/C was 24 % of control.

What about the T/C (dose: 60.0 mg/kg/injection, schedule: Q01DX011 (sc), vehicle: saline) of the same compound?
The T/C was 41 % of control.

What about the T/C (dose: 60.0 mg/kg/injection, schedule: Q#A X022 (ip), vehicle: saline) of the same compound?
The T/C was 28 % of control.

And the T/C (dose: 62.5 mg/kg/injection, schedule: Q01DX011 (ip), vehicle: saline)?
The T/C was 63 % of control.

What about the T/C (dose: 87.5 mg/kg/injection, schedule: Q01DX011 (ip), vehicle: saline) of the same compound?
Its T/C is 33 % of control and 35 % of control.

What about the T/C (dose: 90.0 mg/kg/injection, schedule: Q03DX004 (ip), vehicle: saline) of the same compound?
The T/C was 66 % of control.

And the T/C (dose: 100.0 mg/kg/injection, schedule: Q01DX001 (ip), vehicle: saline)?
The T/C was 80 % of control and 87 % of control.

What about the T/C (dose: 100.0 mg/kg/injection, schedule: Q07DX002 (ip), vehicle: saline) of the same compound?
The T/C was 78 % of control.

And the T/C (dose: 120.0 mg/kg/injection, schedule: Q01DX001 (ip), vehicle: saline)?
The T/C was 56 % of control.

What about the T/C (dose: 120.0 mg/kg/injection, schedule: Q01DX011 (im), vehicle: saline) of the same compound?
Its T/C is 45 % of control.

And the T/C (dose: 120.0 mg/kg/injection, schedule: Q01DX011 (ip), vehicle: saline)?
Its T/C is 17 % of control.

What about the T/C (dose: 120.0 mg/kg/injection, schedule: Q01DX011 (oral), vehicle: saline) of the same compound?
Its T/C is 26 % of control.

What about the T/C (dose: 120.0 mg/kg/injection, schedule: Q01DX011 (sc), vehicle: saline) of the same compound?
The T/C was 46 % of control.

What about the T/C (dose: 120.0 mg/kg/injection, schedule: Q#A X022 (ip), vehicle: saline) of the same compound?
Its T/C is 34 % of control.

What about the T/C (dose: 125.0 mg/kg/injection, schedule: Q01DX011 (ip), vehicle: saline) of the same compound?
Its T/C is 36 % of control.

And the T/C (dose: 125.0 mg/kg/injection, schedule: Q01DX011 (oral), vehicle: saline)?
Its T/C is 74 % of control.

And the T/C (dose: 175.0 mg/kg/injection, schedule: Q01DX011 (ip), vehicle: other)?
The T/C was 33 % of control.

And the T/C (dose: 175.0 mg/kg/injection, schedule: Q01DX011 (ip), vehicle: saline)?
The T/C was 27 % of control and 33 % of control.

And the T/C (dose: 180.0 mg/kg/injection, schedule: Q03DX004 (ip), vehicle: saline)?
Its T/C is 58 % of control.

And the T/C (dose: 200.0 mg/kg/injection, schedule: Q01DX001 (ip), vehicle: saline)?
Its T/C is 74 % of control and 75 % of control.

What about the T/C (dose: 200.0 mg/kg/injection, schedule: Q07DX002 (ip), vehicle: saline) of the same compound?
Its T/C is 71 % of control.

What about the T/C (dose: 240.0 mg/kg/injection, schedule: Q01DX001 (ip), vehicle: saline) of the same compound?
The T/C was 44 % of control.

What about the T/C (dose: 240.0 mg/kg/injection, schedule: Q01DX011 (ip), vehicle: saline) of the same compound?
Its T/C is 16 % of control.

And the T/C (dose: 240.0 mg/kg/injection, schedule: Q01DX011 (oral), vehicle: saline)?
The T/C was 23 % of control.

And the T/C (dose: 250.0 mg/kg/injection, schedule: Q01DX011 (ip), vehicle: saline)?
The T/C was 52 % of control.

What about the T/C (dose: 250.0 mg/kg/injection, schedule: Q01DX011 (oral), vehicle: saline) of the same compound?
The T/C was 64 % of control.

What about the T/C (dose: 350.0 mg/kg/injection, schedule: Q01DX011 (ip), vehicle: other) of the same compound?
The T/C was 16 % of control.

What about the T/C (dose: 360.0 mg/kg/injection, schedule: Q03DX004 (ip), vehicle: saline) of the same compound?
Its T/C is 54 % of control.

What about the T/C (dose: 400.0 mg/kg/injection, schedule: Q01DX001 (ip), vehicle: saline) of the same compound?
Its T/C is 54 % of control and 65 % of control.

And the T/C (dose: 400.0 mg/kg/injection, schedule: Q07DX002 (ip), vehicle: saline)?
Its T/C is 51 % of control.

And the T/C (dose: 480.0 mg/kg/injection, schedule: Q01DX001 (ip), vehicle: saline)?
Its T/C is 26 % of control.

And the T/C (dose: 480.0 mg/kg/injection, schedule: Q01DX011 (im), vehicle: saline)?
The T/C was 33 % of control.

What about the T/C (dose: 480.0 mg/kg/injection, schedule: Q01DX011 (ip), vehicle: saline) of the same compound?
Its T/C is 16 % of control.

And the T/C (dose: 480.0 mg/kg/injection, schedule: Q01DX011 (oral), vehicle: saline)?
The T/C was 24 % of control.

What about the T/C (dose: 480.0 mg/kg/injection, schedule: Q01DX011 (sc), vehicle: saline) of the same compound?
Its T/C is 30 % of control.

And the T/C (dose: 500.0 mg/kg/injection, schedule: Q01DX011 (ip), vehicle: saline)?
The T/C was 58 % of control.

And the T/C (dose: 500.0 mg/kg/injection, schedule: Q01DX011 (oral), vehicle: saline)?
Its T/C is 57 % of control.

And the T/C (dose: 700.0 mg/kg/injection, schedule: Q01DX011 (ip), vehicle: other)?
The T/C was 34 % of control.

What about the T/C (dose: 720.0 mg/kg/injection, schedule: Q03DX004 (ip), vehicle: saline) of the same compound?
Its T/C is 24 % of control.

And the T/C (dose: 800.0 mg/kg/injection, schedule: Q01DX001 (ip), vehicle: saline)?
Its T/C is 60 % of control and 80 % of control.

And the T/C (dose: 800.0 mg/kg/injection, schedule: Q07DX002 (ip), vehicle: saline)?
Its T/C is 51 % of control.

And the T/C (dose: 960.0 mg/kg/injection, schedule: Q01DX001 (ip), vehicle: saline)?
The T/C was 31 % of control.

What about the T/C (dose: 960.0 mg/kg/injection, schedule: Q01DX011 (im), vehicle: saline) of the same compound?
Its T/C is 29 % of control.

What about the T/C (dose: 960.0 mg/kg/injection, schedule: Q01DX011 (oral), vehicle: saline) of the same compound?
Its T/C is 25 % of control.

What about the T/C (dose: 960.0 mg/kg/injection, schedule: Q01DX011 (sc), vehicle: saline) of the same compound?
Its T/C is 25 % of control.

And the T/C (dose: 1000.0 mg/kg/injection, schedule: Q01DX011 (ip), vehicle: saline)?
The T/C was 47 % of control.

And the T/C (dose: 1000.0 mg/kg/injection, schedule: Q01DX011 (oral), vehicle: saline)?
Its T/C is 43 % of control.

What about the T/C (dose: 1440.0 mg/kg/injection, schedule: Q03DX004 (ip), vehicle: saline) of the same compound?
The T/C was 29 % of control.

What about the T/C (dose: 2000.0 mg/kg/injection, schedule: Q01DX011 (ip), vehicle: saline) of the same compound?
Its T/C is 40 % of control.

And the T/C (dose: 2000.0 mg/kg/injection, schedule: Q01DX011 (oral), vehicle: saline)?
Its T/C is 36 % of control.

What about the T/C (dose: 3000.0 mg/kg/injection, schedule: Q01DX011 (oral), vehicle: saline) of the same compound?
The T/C was 56 % of control.

For CN(C)S(=O)(=O)c1ncc2[nH]cnc2n1, which T/C (dose: 25.0 mg/kg/injection, schedule: Q01DX011 (ip), vehicle: carboxymethylcellulose (CMC)) is on record?
Its T/C is 116 % of control.

What about the T/C (dose: 75.0 mg/kg/injection, schedule: Q01DX011 (ip), vehicle: carboxymethylcellulose (CMC)) of the same compound?
The T/C was 98 % of control.

And the T/C (dose: 225.0 mg/kg/injection, schedule: Q01DX011 (ip), vehicle: carboxymethylcellulose (CMC))?
Its T/C is 84 % of control.

Which results are given for CC(C)Cn1cnc2c(SCCc3ccccc3)nc(N)nc21?
T/C (dose: 75.0 mg/kg/injection, schedule: Q01DX011 (ip), vehicle: methylcellulose (MC)): 52 % of control; T/C (dose: 150.0 mg/kg/injection, schedule: Q01DX011 (ip), vehicle: methylcellulose (MC)): 34 % of control; T/C (dose: 300.0 mg/kg/injection, schedule: Q01DX011 (ip), vehicle: methylcellulose (MC)): 3 % of control

With CCC1CN1P(=O)(Oc1cccc2ccccc12)N1CC1CC (stereo not given) as the compound, how does the T/C (dose: 88.0 mg/kg/injection, schedule: Q01DX011 (ip), vehicle: carboxymethylcellulose (CMC)) read?
The T/C was 42 % of control.

What about the T/C (dose: 88.0 mg/kg/injection, schedule: Q01DX011 (ip), vehicle: methylcellulose (MC)) of the same compound?
Its T/C is 80 % of control.

What about the T/C (dose: 175.0 mg/kg/injection, schedule: Q01DX011 (ip), vehicle: methylcellulose (MC)) of the same compound?
The T/C was 92 % of control.

And the T/C (dose: 350.0 mg/kg/injection, schedule: Q01DX011 (ip), vehicle: methylcellulose (MC))?
Its T/C is 59 % of control.
